# Assay results as given in patent publication EP1257261B1, “ANTIVIRAL PHARMACEUTICAL COMPOSITIONS CONTAINING IRON CHELATORS” (Faculteit Geneeskunde Universiteit Utrecht, priority 1999, dated 2001).
# Where two headings read alike, the source gives them in different places.
# Assays:
# PBL [1] = assay: Lymphocyte proliferation, overnight 3H-thymidine incorporation; type: cell-based, human; details: concentrations studied, 4 days incubation then overnight 3H-TdR
# Source text: Peripheral Blood Mononuclear Cell (PBMC) fractions were isolated from heparinized blood from HIV-1-, HIV-2- and hepatitis B-seronegative donors (Bloodbank, Utrecht, The Netherlands) by Ficoll-Isopaque gradient separation. Cells were washed twice and were then either subjected to counter-current centrifugal elutriation, or monocytes in the PBMC fraction were allowed to adhere to fibronectin-coated flasks before the PBL fraction was harvested. Monocytes were of >95% purity by criteria of cell morphology on May-Grunwald-Giemsa-stained cytosmears and by non-specific esterase staining using (α-naphthylacetate (Sigma Chemical Co., St. Louis, MO) and PBL >85% purity by May-Grunwald-Giemsa-staining. Viability of both cell types was >95% at the point of experiment initiation as determined by trypan-blue exclusion. Isolated monocytes were cultured in suspension at a concentration of 2 x 10^6 cells/ml in teflon flasks minimizing adherence (Nalgene, Rochester, NY) and allowed to differentiate for 7 days. MDM medium consisted of Dulbecco's modified Eagle's medium supplemented with 10% heat-inactivated human AB serum, negative for anti-HIV antibodies (Bloodbank Utrecht, NL), 10 µg/ml gentamycin (Life Technologies Ltd, Paisley, Scotland), 5 µg/ml ciprofloxacin (Beyer, Leverkusen, Germany), 0.6 mg/ml L-glutamine (Sigma) and 3.4 g/L bicarbonate (Merck, Darmstadt, Germany). […]
# HIV-1Ba-L [2] = assay: HIV-1 replication in MDM, p24 ELISA of culture supernatant; type: cell-based; details: 5 days
# Source text: (§1) Peripheral Blood Mononuclear Cell (PBMC) fractions were isolated from heparinized blood from HIV-1-, HIV-2- and hepatitis B-seronegative donors (Bloodbank, Utrecht, The Netherlands) by Ficoll-Isopaque gradient separation. Cells were washed twice and were then either subjected to counter-current centrifugal elutriation, or monocytes in the PBMC fraction were allowed to adhere to fibronectin-coated flasks before the PBL fraction was harvested. Monocytes were of >95% purity by criteria of cell morphology on May-Grunwald-Giemsa-stained cytosmears and by non-specific esterase staining using (α-naphthylacetate (Sigma Chemical Co., St. Louis, MO) and PBL >85% purity by May-Grunwald-Giemsa-staining. Viability of both cell types was >95% at the point of experiment initiation as determined by trypan-blue exclusion. Isolated monocytes were cultured in suspension at a concentration of 2 x 10^6 cells/ml in teflon flasks minimizing adherence (Nalgene, Rochester, NY) and allowed to differentiate for 7 days. MDM medium consisted of Dulbecco's modified Eagle's medium supplemented with 10% heat-inactivated human AB serum, negative for anti-HIV antibodies (Bloodbank Utrecht, NL), 10 µg/ml gentamycin (Life Technologies Ltd, Paisley, Scotland), 5 µg/ml ciprofloxacin (Beyer, Leverkusen, Germany), 0.6 mg/ml L-glutamine (Sigma) and 3.4 g/L bicarbonate (Merck, Darmstadt, Germany). Isolated PBL was stimulated to proliferate for 3 days with 4 µg/ml phytohemagglutinin (PHA; Sigma) in RPMI-1640 (Life Technologies Ltd.) medium supplemented with 10% heat inactivated fetal calf serum (Life Technologies Ltd.) and 10 µg/ml gentamycin. After PHA stimulation the PBL were cultured in medium containing 10 U/ml human recombinant IL-2 (Boehringer, Mannheim, Germany). All incubations were carried out in flat-bottomed 96-well plates at 37 °C, 5% CO2 and 95% air.
# (§2) Cells were infected for 2 hours with HIV-1Ba-L. Macrophages were infected with a multiplicity of infection (MOI) of 0.005 and lymphocytes with an MOI of 0.001. The cells were then washed twice to remove excess virus and subsequently incubated with either DF (Novartis Pharma, Arnhem, The Netherlands), L1 (from Duchefa Farma B.V., Haarlem, The Netherlands) or BLM (H. Lundbeck A/S, Copenhagen, Denmark) for a period of 5 days. Virus in culture supernatant was inactivated in a final concentration of 0.05% empigen (Calbiochem-Novabiochem Co., La Jolla, CA). The presence of HIV-1 in the inactivated supernatant was monitored by checking for the p24-core antigen by enzyme-linked immunosorbent assay (ELISA).
# (§3) For the HIV-1 replication measurements cells were infected for 2 hours with HIV-1Ba-L at an MOI of 0.001; the cells were subsequently washed 2 times and incubated with different compound concentrations. After 5 days supernatant was harvested for p24 ELISA; Virus replication was expressed as % p24 reduction after compound incubations, compared to p24 measured from control HIV-infected cells incubated in the absence of compounds (set at 100% p24). Cytotoxicity was measured by the MTT test and is represented as % viable cells after 5 days compound incubations, compared to viable cells from control HIV-infected cells incubated in the absence of compounds (set at 100% viable cells). Results are the average of 3 experiments in duplicate (statistical analysis using repeated ANOVA and student Newman-Keuls test, *p<0.05). 100% p24 production represents 1.2 ng p24/ml.
# HIV-1Ba-L [3] = assay: HIV-1 replication in PBL, p24 ELISA of culture supernatant; type: cell-based
# Source text: as §1, §2
# For the HIV-1 replication measurements cells were infected for 2 hours with HIV-1Ba-L at an MOI of 0.001; the cells were subsequently washed 2 times and incubated with different DF concentrations. After 5 days, supenatant was harvested for p24 ELISA. Virus replication was expressed as % p24 reduction after DF incubations, compared to p24 measured from control HIV-infected cells incubated in the absence of DF (set at 100% p24). Cytotoxicity was measured by the MTT test and is represented as % viable cells after 5 days DF incubations, compared to viable cells from control HIV-infected cells incubated in the absence of DF (set at 100% viable cells). PBL proliferation was measured by overnight ^3H-thymidine incorporation after DF was incubated for 4 days with cells; it is represented as counts per minute (cpm) after DF incubations, compared to cpm from control cells, incubated in the absence of DF. Results are the average of 3 experiments in duplicate (statistical analysis using repeated ANOVA and student Newman-Keuls test, *p<0.05). 100% p24 production represents 19 ng p24/ml
# For the HIV-I replication measurements cells were infected for 2 hours with HIV-1Ba-L at an MOI of 0.001; the cells were subsequently washed 2 times and incubated with different L1 concentrations. After 5 days, supernatant was harvested for p24 ELISA. […]
# MDM = assay: Cytotoxicity in MDM, MTT assay; type: cell-based, human; details: 5 days
# Protocol: (§4) Peripheral Blood Mononuclear Cell (PBMC) fractions were isolated from heparinized blood from HIV-1-, HIV-2- and hepatitis B-seronegative donors (Bloodbank, Utrecht, The Netherlands) by Ficoll-Isopaque gradient separation. Cells were washed twice and were then either subjected to counter-current centrifugal elutriation, or monocytes in the PBMC fraction were allowed to adhere to fibronectin-coated flasks before the PBL fraction was harvested. […] After PHA stimulation the PBL were cultured in medium containing 10 U/ml human recombinant IL-2 (Boehringer, Mannheim, Germany).
# (§5) Possible cytotoxicity of DF, L1 or BLM was monitored by the MTT [3-(4,5 dimethylthiazol-2-yl)-2,5-diphenyltetrazolium bromide] (Sigma) assay.
# as §3, with “*p<0.05).” for “*p<0.05). 100% p24 production represents 1.2 ng p24/ml.”
# PBL [4] = assay: Cytotoxicity in PBL, MTT assay; type: cell-based, human; details: 5 days incubation
# Protocol: as §4, §5
# (§6) Results are the average of 3 experiments in duplicate (statistical analysis using repeated ANOVA and student Newman-Keuls test, *p<0.05).
# as §6, §6
# HIV-1Ba-L [5] = assay: Drug combination studies, p24 inhibition in HIV-infected PBL, median-effect / combination index (CalcuSyn); type: cell-based; details: 5 days; for IC50: Human immunodeficiency virus 1, 120 h, read-out: IC50 (p24-antigen inhibition)
# Protocol: Three separate experiments were performed substantially as described in the section HIV infection and p24 measurements. Multiply-diluted fixed-ratio combinations of the drugs, or single drugs were added to each incubation point. The IC50 (inhibitory concentration) of each drug was calculated using the computer software program CalcuSyn. The combined-drug effect was evaluated by the median-effect principle and the isobologram method. This method involves the plotting of the dose-effect curve for each drug alone and in combination. The slope of the median-effect plot and the x intercept of the plot were then used for the computerized calculation of a combination index (CI). The CI values were based on the classic isobologram equation and CI values of <1, 1 and >1 indicate synergism (greater than the expected additive effect), additive effects and antagonism (less than the expected additive effect). Fraction affected (fa) was calculated for every drug combination and for each drug alone after p24 measurements in infected PBL incubated for 5 days with the examined compounds (see HIV infection and p24 measurements).
# CT < 1, = 1 and > 1 represent synergistic, additive and antagonistic effects, respectively. The subdivision within the synergistic area (CI >0.7, 0.3-0.7 and <0.3 implying moderate synergism, synergism, and strong synergism respectively) is according to Chou and Talalay. The parameters are obtained using the median effect equation of Chou and Talalay and the CalcuSync computer software programme as described in materials and methods.
# Peripheral blood lymphocytes (PBL) were infected for 2 hours with HIV-1Ba-L at an MOI of 0.001. The cells were subsequently washed 2 times to remove an excess in virus and subsequently incubated for 5 days with only BLM, only ritonavir or various combinations of the two substances. Virus in the supernatant of the cell cultures was inactivated in a final concentration of 0.05% empigen and the presence of HIV-1 in the inactivated supernatant was measured by determining the p24 antigen with enzyme-linked immunosorbent assay (ELISA). […]
# [6] = single drug within the DF-ddI combination experiment
# [7] = single drug within the BLM-ritonavir combination experiment
# [8] = 300 ng BLM/ml, control 1.2 ng p24/ml
molecule,measurement,setting,value
"Cc1c(O)c(=O)ccn1C [L1, deferiprone]",cellular proliferation (3H-thymidine incorporation),PBL [1],decrease in proliferation
same,up-regulation of p24 antigen production,HIV-1Ba-L [2]; 30 µM,up to two fold
same,HIV-1 replication (p24),"HIV-1Ba-L [3]; 100 µM, 5 days",reduced to minimal levels
same,p24 antigen production,"HIV-1Ba-L [3]; lower compound concentrations (below 100 µM), 5 days",subtle increase
same,"cytotoxicity (cell viability, MTT)",MDM; concentrations studied,not cytotoxic
same,"cytotoxicity (cell viability, MTT)",PBL [4]; 100 µM,not cytotoxic
"CC(=O)N(O)CCCCCNC(=O)CCC(=O)N(O)CCCCCNC(=O)CCC(=O)N(O)CCCCCN [DF, deferoxamine]",inhibition at 100 µM,"HIV-1Ba-L [2]; Human immunodeficiency virus 1, 120 h, concentrations around 100 µM, control 1.2 ng p24/ml, read-out: reduction of viral replication (p24)",≤ 50%
same,p24 level in culture supernatant,"HIV-1Ba-L [2]; concentrations around 100 µM, control 1.2 ng p24/ml",0.6 ng p24/ml
same,p24 level in culture supernatant,"HIV-1Ba-L [3]; 3 µM, 5 days, control 19 ng p24/ml",11 ng p24/ml
same,p24 level in culture supernatant,"HIV-1Ba-L [3]; 30 µM, 5 days, n=3, control 19 ng p24/ml",1.9 ng p24/ml
same,inhibition at 3 µM,"HIV-1Ba-L [3]; Human immunodeficiency virus 1, 120 h, 3 µM, 5 days incubation, n=3, p<0.05, control 19 ng p24/ml, read-out: reduction in viral replication (p24)",40%
same,inhibition at 30 µM,"HIV-1Ba-L [3]; Human immunodeficiency virus 1, 120 h, 30 µM, 5 days, n=3, control 19 ng p24/ml, read-out: reduction of p24 levels",> 90%
same,IC50,HIV-1Ba-L [5]; [6],8.5 µM
same,"cytotoxicity (cell viability, MTT)",MDM; concentrations around 100 µM,onset of cytotoxicity
same,"cytotoxicity (cell viability, MTT)",PBL [4]; 100 µM,cytotoxic
"O=c1[nH]cnc2c1ncn2[C@H]1CC[C@@H](CO)O1 [ddI, dideoxyinosine]",IC50,HIV-1Ba-L [5]; [6],3.7 µM
CC(C)c1nc(CN(C)C(=O)N[C@H](C(=O)N[C@@H](Cc2ccccc2)C[C@H](O)[C@H](Cc2ccccc2)NC(=O)OCc2cncs2)C(C)C)cs1 [ritonavir],IC50,HIV-1Ba-L [5]; [7],0.04 µM
bleomycin [BLM],cellular proliferation (3H-thymidine incorporation),PBL [1],remained intact
same,p24 level in culture supernatant,HIV-1Ba-L [2]; [8],0.6 ng p24/ml
same,reduction of p24 levels,HIV-1Ba-L [2]; [8],50%
same,reduction of HIV-1 replication (p24),"HIV-1Ba-L [3]; 3-300 ng BLM/ml, 5 days, n=3, control 19 ng p24/ml",20-50%
same,p24 level in culture supernatant,"HIV-1Ba-L [3]; lower end of 3-300 ng BLM/ml range (20% reduction), n=3, control 19 ng p24/ml",15 ng p24/ml
same,p24 level in culture supernatant,"HIV-1Ba-L [3]; upper end of 3-300 ng BLM/ml range (50% reduction), n=3, control 19 ng p24/ml",9.5 ng p24/ml
same,IC50 (p24-antigen inhibition),HIV-1Ba-L [5]; [7],1.9 µg/mL
same,"cytotoxicity (cell viability, MTT)",MDM; concentrations studied,not to affect cell viability
same,"cytotoxicity (cell viability, MTT)",PBL [4]; concentrations studied,not cytotoxic
